Reference: ChEMBL document CHEMBL4396916, “Novel potent substituted 4-amino-2-thiopyrimidines as dual VEGFR-2 and BRAF kinase inhibitors” (Eur J Med Chem, 2019)

Assays:
RPMI-8226 = assay: Growth inhibition of human RPMI8226 cells at 10 uM incubated for 48 hrs by sulforhodamine B assay relative to control; format: functional; settings: RPMI-8226, 48 h, read-out: GI
K562 = assay: Growth inhibition of human K562 cells at 10 uM incubated for 48 hrs by sulforhodamine B assay relative to control; format: functional; settings: K562, 48 h, read-out: GI
MDA-MB-231 = assay: Growth inhibition of human MDA-MB-231 cells at 10 uM incubated for 48 hrs by sulforhodamine B assay relative to control; format: functional; settings: MDA-MB-231, 48 h, read-out: GI
T47D [1] = assay: Growth inhibition of human T47D cells at 10 uM incubated for 48 hrs by sulforhodamine B assay relative to control; format: functional; settings: read-out: GI
T47D [2] = assay: Cytotoxicity against human T47D cells expressing wild type BRAF measured after 48 hrs by sulforhodamine B assay; format: functional, cell-based
MDA-MB-468 = assay: Growth inhibition of human MDA-MB-468 cells at 10 uM incubated for 48 hrs by sulforhodamine B assay relative to control; format: functional; settings: MDA-MB-468, 48 h, read-out: GI
ACHN = assay: Growth inhibition of human ACHN cells at 10 uM incubated for 48 hrs by sulforhodamine B assay relative to control; format: functional; settings: read-out: GI
SK-OV-3 = assay: Growth inhibition of human SKOV3 cells at 10 uM incubated for 48 hrs by sulforhodamine B assay relative to control; format: functional; settings: SK-OV-3, 48 h, read-out: GI
[3] = target: Vascular endothelial growth factor receptor 2 (Homo sapiens, UniProt P35968); assay: Inhibition of human N-terminal GST tagged VEGFR-2 expressed in baculovirus infected Sf9 cells using poly (Glu,Tyr) 4:1 as substrate in presence of ATP by Kinase-Glo luminescence assay
UACC-62 = assay: Growth inhibition of human UACC62 cells at 10 uM incubated for 48 hrs by sulforhodamine B assay relative to control; format: functional; settings: UACC-62, 48 h, read-out: GI
SF-295 = assay: Growth inhibition of human SF295 cells at 10 uM incubated for 48 hrs by sulforhodamine B assay relative to control; format: functional; settings: SF-295, 48 h, read-out: GI
LOX IMVI = assay: Growth inhibition of human LOXIMVI cells at 10 uM incubated for 48 hrs by sulforhodamine B assay relative to control; format: functional; settings: read-out: GI
SNB-75 = assay: Growth inhibition of human SNB75 cells at 10 uM incubated for 48 hrs by sulforhodamine B assay relative to control; format: functional; settings: SNB-75, 48 h, read-out: GI
MOLT-4 = assay: Growth inhibition of human MOLT4 cells at 10 uM incubated for 48 hrs by sulforhodamine B assay relative to control; format: functional; settings: MOLT-4, 48 h, read-out: GI
IGROV-1 = assay: Growth inhibition of human IGROV1 cells at 10 uM incubated for 48 hrs by sulforhodamine B assay relative to control; format: functional; settings: IGROV-1, 48 h, read-out: GI
MCF7 [4] = assay: Growth inhibition of human MCF7 cells at 10 uM incubated for 48 hrs by sulforhodamine B assay relative to control; format: functional; settings: MCF7, 48 h, read-out: GI
NCI-H23 = assay: Growth inhibition of human NCI-H23 cells at 10 uM incubated for 48 hrs by sulforhodamine B assay relative to control; format: functional; settings: NCI-H23, 48 h, read-out: GI
NCI-H522 = assay: Growth inhibition of human NCI-H522 cells at 10 uM incubated for 48 hrs by sulforhodamine B assay relative to control; format: functional; settings: NCI-H522, 48 h, read-out: GI
Hs-578T = assay: Growth inhibition of human Hs578T cells at 10 uM incubated for 48 hrs by sulforhodamine B assay relative to control; format: functional; settings: read-out: GI
A549 = assay: Growth inhibition of human A549/ATCC cells at 10 uM incubated for 48 hrs by sulforhodamine B assay relative to control; format: functional; settings: A549, 48 h, read-out: GI
HL-60(TB) = assay: Growth inhibition of human HL-60(TB) cells at 10 uM incubated for 48 hrs by sulforhodamine B assay relative to control; format: functional; settings: HL-60, 48 h, read-out: GI
SK-MEL-5 = assay: Growth inhibition of human SK-MEL-5 cells at 10 uM incubated for 48 hrs by sulforhodamine B assay relative to control; format: functional; settings: SK-MEL-5, 48 h, read-out: GI
HOP-62 = assay: Growth inhibition of human HOP62 cells at 10 uM incubated for 48 hrs by sulforhodamine B assay relative to control; format: functional; settings: HOP-62, 48 h, read-out: GI
NCI/ADR-RES = assay: Growth inhibition of human NCI/ADR-RES cells at 10 uM incubated for 48 hrs by sulforhodamine B assay relative to control; format: functional; settings: read-out: GI
CCRF-CEM = assay: Growth inhibition of human CCRF-CEM cells at 10 uM incubated for 48 hrs by sulforhodamine B assay relative to control; format: functional; settings: read-out: GI
EKVX = assay: Growth inhibition of human EKVX cells at 10 uM incubated for 48 hrs by sulforhodamine B assay relative to control; format: functional; settings: read-out: GI
UO-31 = assay: Growth inhibition of human UO31 cells at 10 uM incubated for 48 hrs by sulforhodamine B assay relative to control; format: functional; settings: UO-31, 48 h, read-out: GI
CAKI-1 = assay: Growth inhibition of human Caki1 cells at 10 uM incubated for 48 hrs by sulforhodamine B assay relative to control; format: functional; settings: CAKI-1, 48 h, read-out: GI
SNB-19 = assay: Growth inhibition of human SNB19 cells at 10 uM incubated for 48 hrs by sulforhodamine B assay relative to control; format: functional; settings: SNB-19, 48 h, read-out: GI
SN12C = assay: Growth inhibition of human SN12C cells at 10 uM incubated for 48 hrs by sulforhodamine B assay relative to control; format: functional; settings: read-out: GI
NCI-H226 = assay: Growth inhibition of human NCI-H226 cells at 10 uM incubated for 48 hrs by sulforhodamine B assay relative to control; format: functional; settings: NCI-H226, 48 h, read-out: GI
MCF7 [5] = assay: Cytotoxicity against human MCF7 cells expressing VEGFR2 and wild type BRAF measured after 48 hrs by sulforhodamine B assay; format: functional, cell-based; settings: MCF7, 48 h
U-251 = assay: Growth inhibition of human U251 cells at 10 uM incubated for 48 hrs by sulforhodamine B assay relative to control; format: functional; settings: U-251, 48 h, read-out: GI
PC-3 = assay: Growth inhibition of human PC3 cells at 10 uM incubated for 48 hrs by sulforhodamine B assay relative to control; format: functional; settings: PC-3, 48 h, read-out: GI
HCT-116 = assay: Growth inhibition of human HCT116 cells at 10 uM incubated for 48 hrs by sulforhodamine B assay relative to control; format: functional; settings: HCT-116, 48 h, read-out: GI
RXF 393 = assay: Growth inhibition of human RXF393 cells at 10 uM incubated for 48 hrs by sulforhodamine B assay relative to control; format: functional; settings: RXF 393, 48 h, read-out: GI

Chain of Vascular endothelial growth factor receptor 2 (P35968 whole entry): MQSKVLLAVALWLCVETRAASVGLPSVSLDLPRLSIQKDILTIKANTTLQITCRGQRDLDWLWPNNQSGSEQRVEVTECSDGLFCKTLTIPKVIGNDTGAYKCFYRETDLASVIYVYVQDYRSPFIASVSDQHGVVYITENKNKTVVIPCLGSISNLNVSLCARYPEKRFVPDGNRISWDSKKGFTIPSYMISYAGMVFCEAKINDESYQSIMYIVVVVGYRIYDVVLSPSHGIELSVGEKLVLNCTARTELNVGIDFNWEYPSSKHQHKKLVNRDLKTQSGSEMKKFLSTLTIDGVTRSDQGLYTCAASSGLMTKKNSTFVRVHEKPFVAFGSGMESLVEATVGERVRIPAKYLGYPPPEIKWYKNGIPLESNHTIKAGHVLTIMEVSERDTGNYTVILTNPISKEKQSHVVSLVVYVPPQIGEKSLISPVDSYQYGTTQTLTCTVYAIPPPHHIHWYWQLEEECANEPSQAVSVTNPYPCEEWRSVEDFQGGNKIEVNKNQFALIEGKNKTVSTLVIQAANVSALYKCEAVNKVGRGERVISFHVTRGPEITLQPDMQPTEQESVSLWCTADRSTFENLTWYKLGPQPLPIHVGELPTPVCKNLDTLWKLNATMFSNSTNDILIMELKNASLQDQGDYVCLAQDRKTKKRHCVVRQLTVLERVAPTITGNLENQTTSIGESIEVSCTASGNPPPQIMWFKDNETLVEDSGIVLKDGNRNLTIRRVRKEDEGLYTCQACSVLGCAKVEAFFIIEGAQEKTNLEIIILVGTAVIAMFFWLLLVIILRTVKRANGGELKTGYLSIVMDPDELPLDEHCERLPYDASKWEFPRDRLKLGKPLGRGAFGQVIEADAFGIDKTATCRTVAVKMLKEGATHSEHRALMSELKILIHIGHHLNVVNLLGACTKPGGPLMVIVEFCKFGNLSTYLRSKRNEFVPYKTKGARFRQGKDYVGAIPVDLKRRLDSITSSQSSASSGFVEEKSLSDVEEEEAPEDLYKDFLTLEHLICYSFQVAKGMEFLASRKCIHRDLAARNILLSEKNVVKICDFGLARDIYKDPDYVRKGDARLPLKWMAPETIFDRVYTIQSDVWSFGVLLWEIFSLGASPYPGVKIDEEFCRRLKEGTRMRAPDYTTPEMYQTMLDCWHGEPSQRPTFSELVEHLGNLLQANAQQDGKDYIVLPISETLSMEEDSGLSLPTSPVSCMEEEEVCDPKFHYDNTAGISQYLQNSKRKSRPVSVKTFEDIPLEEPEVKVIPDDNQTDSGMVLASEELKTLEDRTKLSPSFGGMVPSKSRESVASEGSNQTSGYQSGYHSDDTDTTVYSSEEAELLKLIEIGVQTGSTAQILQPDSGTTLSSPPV

`CC(=O)c1cccc(Nc2ccnc(SCC(=O)c3ccc(C(F)(F)F)cc3)n2)c1` gave an inhibition of growth at 10 µM (RPMI-8226) of 31%, an inhibition of growth at 10 µM (K562) of 29% and an inhibition of growth at 10 µM (MDA-MB-231) of 22%. The inhibition of growth at 10 µM (T47D [1]) was 37%, the IC50 (T47D [2]) was 17.1 µM and the inhibition of growth at 10 µM (MDA-MB-468) was 16%. For the same compound, the inhibition of growth at 10 µM (ACHN) was 19%, the inhibition of growth at 10 µM (SK-OV-3) was 21% and the IC50 [3] was > 10 µM. For the same compound, the inhibition of growth at 10 µM (UACC-62) was 29%, the inhibition of growth at 10 µM (SF-295) was 15% and the inhibition of growth at 10 µM (LOX IMVI) was 13%. For the same compound, the inhibition of growth at 10 µM (SNB-75) was 32%, the inhibition of growth at 10 µM (MOLT-4) was 24% and the inhibition of growth at 10 µM (IGROV-1) was 44%. For the same compound, the inhibition of growth at 10 µM (MCF7 [4]) was 26%, the inhibition of growth at 10 µM (NCI-H23) was 21% and the inhibition of growth at 10 µM (NCI-H522) was 27%. The inhibition of growth at 10 µM (Hs-578T) was 11%, the inhibition of growth at 10 µM (A549) was 12% and the inhibition of growth at 10 µM (HL-60(TB)) was < 10%. For the same compound, the inhibition of growth at 10 µM (SK-MEL-5) was 14%, the inhibition of growth at 10 µM (HOP-62) was 17% and the inhibition of growth at 10 µM (NCI/ADR-RES) was 11%. The inhibition of growth at 10 µM (CCRF-CEM) was 10%, the inhibition of growth at 10 µM (EKVX) was 28% and the inhibition of growth at 10 µM (UO-31) was 57%. It also gave an inhibition of growth at 10 µM (CAKI-1) of 42%, an inhibition of growth at 10 µM (SNB-19) of 10% and an inhibition of growth at 10 µM (SN12C) of 17%. It also gave an inhibition of growth at 10 µM (NCI-H226) of 24%, an IC50 (MCF7 [5]) of 28.2 µM and an inhibition of growth at 10 µM (U-251) of 12%. It also gave an inhibition of growth at 10 µM (PC-3) of 30%, an inhibition of growth at 10 µM (HCT-116) of 28% and an inhibition of growth at 10 µM (RXF 393) of 11%.
